Results: article PMC11124870, “Effect of Antioxidants in Medicinal Products on Intestinal Drug Transporters” (Pharmaceutics, 2024)
Read-outs that look alike come from different tables or passages of the source.

Legend:
[1] = target: T1, P-gp (Homo sapiens, UniProt P08183); assay: Vesicular transport assay, 3H-NMQ uptake in P-gp membrane vesicles; format: biochemical; conditions: for % Uptake of 3H-NMQ P-gp: antioxidant 200 µM, uptake with DMSO set as 100%, mean ± SD, three replicates, membrane vesicles
T1 construct: purchased ThermoFisher Scientific GM0015; host or cells: Sf9 membrane vesicles
Method: (§1) The vesicular transport assay was performed using Spodoptera frugiperda 9 (Sf9) membrane vesicles overexpressing human P-gp or BCRP, as reported previously with minor modifications. In brief, Isoplate 96-well flat-bottom white plates were preincubated with HBSS containing 0.5 mg/mL BSA on an orbital shaker in a 37 °C incubator at 90 rpm for 60 min followed by washing with HBSS. The assay mixture (75 µL/well) contained a probe substrate and either vehicle control, a known inhibitor of P-gp or BCRP, or an antioxidant, in vesicle uptake buffer (50 mM MOPS-Tris, pH 7.0 + 70 mM KCl + 7.5 mM MgCl2) prewarmed to 37 °C. After addition of the assay mixture, 5 μL/well (5 μg/μL stock concentration of the vesicles) of vesicles overexpressing human P-gp or BCRP was added. Uptake assays were initiated by adding 20 μL of either 25 mM adenosine triphosphate (ATP) or 25 mM adenosine monophosphate (AMP) to a final concentration of 5 mM. Plates were incubated at 37 °C for 20 min with orbital shaking (90 rpm). After 20 min, the uptake was quenched by adding 150 μL of ice-cold wash buffer (40 mM MOPS-Tris, pH 7.0 + 70 mM KCl) to each well, and the mixture was transferred to a 96-well filtration plate. Vacuum was applied, and the vesicles were washed three times with wash buffer. Vesicles were then lysed with 100 µL of MicroScint-20.

[2] = Table S1; source not stated; cited from earlier work
[3] = target: T2, OATP2B1 (Homo sapiens, UniProt O94956); assay: Uptake transporter assay, 3H-estrone sulfate uptake in HEK-293-OATP2B1 cells
T2 sequence (O94956 1-709): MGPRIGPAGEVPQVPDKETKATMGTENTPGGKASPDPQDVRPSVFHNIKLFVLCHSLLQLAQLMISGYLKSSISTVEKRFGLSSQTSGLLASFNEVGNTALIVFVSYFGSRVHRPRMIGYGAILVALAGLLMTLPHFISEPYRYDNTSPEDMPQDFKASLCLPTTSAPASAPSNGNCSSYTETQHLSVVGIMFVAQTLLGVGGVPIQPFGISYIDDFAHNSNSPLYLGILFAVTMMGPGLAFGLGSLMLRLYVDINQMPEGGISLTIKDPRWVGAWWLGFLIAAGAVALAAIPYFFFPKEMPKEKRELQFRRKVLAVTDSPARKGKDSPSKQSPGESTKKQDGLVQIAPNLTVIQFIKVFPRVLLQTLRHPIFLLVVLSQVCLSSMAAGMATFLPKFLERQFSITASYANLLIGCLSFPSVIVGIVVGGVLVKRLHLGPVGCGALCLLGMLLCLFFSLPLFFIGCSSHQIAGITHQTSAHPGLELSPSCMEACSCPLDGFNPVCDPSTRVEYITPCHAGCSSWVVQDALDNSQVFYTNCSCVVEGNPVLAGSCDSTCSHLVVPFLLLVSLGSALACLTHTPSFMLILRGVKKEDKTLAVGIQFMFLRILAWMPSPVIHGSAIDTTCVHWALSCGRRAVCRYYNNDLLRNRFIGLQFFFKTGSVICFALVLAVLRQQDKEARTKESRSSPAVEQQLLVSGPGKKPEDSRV
Method: The uptake transporter assay was performed as reported previously with minor modifications [15]. A day before the uptake assay, Isoplate 96-well plates were coated with poly-D-lysine in PBS with calcium and magnesium and washed with PBS. […] An assay mixture of ^3H-estrone sulfate, a known inhibitor of OATP2B1, or an antioxidant was prepared and incubated in a 37 °C incubator for 10 min. The cells were washed with ice-cold HBSS three times and incubated with MicroScint fluid on a shaker for 1 h for cell lysis. Radioactivity was measured by liquid scintillation counting with a MicroBeta^2® microplate counter. […] On the day of experiment, cells were washed twice with 0.4 mL of HBSS per well and then pre-incubated for 10–20 min in 0.4 mL of HBSS. […] Uptake of ^3H-valsartan was stopped after 15 min by washing three times with ice-cold HBSS. Cells were lysed in 750 µL of lysis buffer (0.1 N NaOH and 0.1% SDS in double-distilled water) per well while shaking for 60 min. A total of 690 µL of the lysate from each well was then added to 2.5 mL of EcoLite scintillation fluid. The radioactivity was determined on a LS6500 Scintillation Counter (Beckman Coulter). Protein concentration was measured with a Pierce™ BCA protein assay kit. The radioactivity in each well was corrected for protein concentration. All values were determined in triplicate, and the final values are expressed as % uptake relative to negative control (1% DMSO).
Antioxidants were screened at a concentration of 200 μM.

[4] = target: T3, BCRP (Homo sapiens, UniProt Q9UNQ0); assay: Vesicular transport assay, 3H-CCK8 uptake in BCRP membrane vesicles; format: biochemical; design: purchased ThermoFisher Scientific GM0008; host or cells: Sf9 membrane vesicles; conditions: for % Uptake of 3H-CCK8 BCRP: antioxidant 200 µM, uptake with DMSO set as 100%, mean ± SD, three replicates, membrane vesicles
T3 sequence (Q9UNQ0 1-655): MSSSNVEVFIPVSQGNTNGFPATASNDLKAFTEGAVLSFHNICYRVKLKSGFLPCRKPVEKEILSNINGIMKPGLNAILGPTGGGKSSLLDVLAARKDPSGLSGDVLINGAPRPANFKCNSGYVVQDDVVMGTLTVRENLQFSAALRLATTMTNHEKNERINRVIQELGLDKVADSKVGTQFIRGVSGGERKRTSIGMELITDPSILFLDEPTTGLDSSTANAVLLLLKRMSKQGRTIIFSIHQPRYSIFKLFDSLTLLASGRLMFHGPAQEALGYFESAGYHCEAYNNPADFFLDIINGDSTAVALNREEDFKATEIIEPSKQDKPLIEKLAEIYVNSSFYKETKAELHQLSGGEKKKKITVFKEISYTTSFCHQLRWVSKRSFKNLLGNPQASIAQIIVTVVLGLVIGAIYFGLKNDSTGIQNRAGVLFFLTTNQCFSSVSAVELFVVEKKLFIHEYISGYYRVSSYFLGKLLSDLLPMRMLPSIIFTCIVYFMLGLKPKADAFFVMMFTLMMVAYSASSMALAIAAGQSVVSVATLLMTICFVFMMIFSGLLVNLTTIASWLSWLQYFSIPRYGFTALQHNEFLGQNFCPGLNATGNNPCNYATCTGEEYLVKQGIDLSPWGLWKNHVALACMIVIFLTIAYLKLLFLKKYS
Method: as §1

[5] = system: OATP2B1, P-gp, and BCRP; conditions: cited from earlier work
[6] = antioxidant 200 µM, uptake with DMSO set as 100%, mean ± SD, three replicates, HEK-293-OATP2B1 cells

T1 sequence (P08183 whole entry): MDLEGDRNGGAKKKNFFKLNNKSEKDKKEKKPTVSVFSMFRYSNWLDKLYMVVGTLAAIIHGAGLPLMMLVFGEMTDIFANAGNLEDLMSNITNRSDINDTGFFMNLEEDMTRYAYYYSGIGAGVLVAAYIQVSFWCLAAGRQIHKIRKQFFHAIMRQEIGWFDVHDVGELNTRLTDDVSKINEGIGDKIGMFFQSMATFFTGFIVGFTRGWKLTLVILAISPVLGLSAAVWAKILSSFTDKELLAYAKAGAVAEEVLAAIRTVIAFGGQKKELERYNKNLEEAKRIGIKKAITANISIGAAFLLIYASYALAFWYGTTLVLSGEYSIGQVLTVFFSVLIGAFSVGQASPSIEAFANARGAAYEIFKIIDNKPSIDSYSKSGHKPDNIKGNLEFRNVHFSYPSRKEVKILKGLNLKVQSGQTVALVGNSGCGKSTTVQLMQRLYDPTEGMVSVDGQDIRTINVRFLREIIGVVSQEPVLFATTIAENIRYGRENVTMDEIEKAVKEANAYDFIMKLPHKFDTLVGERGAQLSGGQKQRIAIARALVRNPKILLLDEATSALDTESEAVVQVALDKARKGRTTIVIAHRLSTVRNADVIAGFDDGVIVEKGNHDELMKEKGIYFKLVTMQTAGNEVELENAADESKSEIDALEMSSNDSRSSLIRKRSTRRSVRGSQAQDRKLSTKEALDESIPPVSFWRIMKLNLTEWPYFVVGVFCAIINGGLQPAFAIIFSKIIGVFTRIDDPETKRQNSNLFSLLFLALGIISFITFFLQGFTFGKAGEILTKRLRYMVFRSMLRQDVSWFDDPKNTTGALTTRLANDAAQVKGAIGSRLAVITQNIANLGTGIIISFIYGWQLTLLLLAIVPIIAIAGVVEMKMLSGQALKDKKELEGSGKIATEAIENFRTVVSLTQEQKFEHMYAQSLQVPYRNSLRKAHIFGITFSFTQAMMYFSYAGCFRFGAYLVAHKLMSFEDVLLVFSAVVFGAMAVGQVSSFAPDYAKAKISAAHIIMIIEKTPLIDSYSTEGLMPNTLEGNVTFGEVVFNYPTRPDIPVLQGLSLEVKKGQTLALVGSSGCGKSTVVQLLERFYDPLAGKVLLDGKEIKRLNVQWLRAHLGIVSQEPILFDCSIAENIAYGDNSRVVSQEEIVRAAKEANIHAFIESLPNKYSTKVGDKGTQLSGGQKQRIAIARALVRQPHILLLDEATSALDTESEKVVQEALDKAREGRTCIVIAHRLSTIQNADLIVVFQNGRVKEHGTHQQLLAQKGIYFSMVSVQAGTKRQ

| Uptake of 3H-ES in HEK-293 cells expressing OATP2B1 (assay validation) ([3]; erlotinib 20 µM, 37 °C, 10 min) | % Uptake of 3H-ES OATP2B1 [3] | Compound | % Uptake of 3H-NMQ P-gp [1] | LogP [2] | % Uptake of 3H-ES OATP2B1 [3, 6] | % Uptake of 3H-CCK8 BCRP [4] | Uptake of 3H-CCK8 in BCRP membrane vesicles (assay validation) ([4]; BSP 200 µM with 5 mM ATP, 37 °C, 20 min) | inhibition at 20 min, 200 µM ([1]; human, Sf9 membrane vesicles overexpressing human P-gp, pH 7, probe 3H-NMQ, 200 µM, 3H-NMQ) | Inhibition of intestinal transporters, previous assessment [5] |
| --- | --- | --- | --- | --- | --- | --- | --- | --- | --- |
| – | – | O=C(O)c1ccc(O)c(O)c1 [3,4-dihydroxybenzoid acid, 3,4-dihydroxybenzoic acid] | 118.9 ± 20% | 0.86 | 85.4 ± 4.4% | 78.5 ± 6.9% | – | – | – |
| – | – | O=C(O)CC(O)(CC(=O)O)C(=O)O [Anhydrous citric acid] | 92 ± 2.1% | – | – | 93.1 ± 6.7% | – | – | – |
| – | – | O=C1O[C@H]([C@@H](O)CO)C(O)=C1O [Ascorbic acid] | 113.6 ± 43.3% | -1.85 | – | 92.7 ± 5.9% | – | – | – |
| – | – | O=C1OC(c2ccc(O)c(S(=O)(=O)O)c2)(c2ccc(O)c(S(=O)(=O)O)c2)c2c(Br)c(Br)c(Br)c(Br)c21 [Bromosulfophthalein, reference compound] | 0.0 ± 22% | – | 10.9 ± 8.1% | 0.3 ± 1.2% | significantly reduced the uptake | – | – |
| – | – | Cc1cc(C(C)(C)C)c(O)c(C(C)(C)C)c1 [Butylated hydroxytoluene (BH), Butylated hydroxytoluene] | 98.1 ± 20.3% | – | 137.1 ± 34.8% | 102.8 ± 9.2% | – | – | – |
| – | – | O=C(O)/C=C/c1ccc(O)c(O)c1 [Caffeic acid] | 133.8 ± 12% | – | 119.8 ± 19.8% | 75.8 ± 3.7% | – | – | – |
| – | – | NCCC(=O)N[C@@H](Cc1cnc[nH]1)C(=O)O [Carnosine] | 82.6 ± 44% | -4 | 119.3 ± 27.6% | 99.7 ± 11.6% | – | – | – |
| – | – | COC1=C(OC)C(=O)C(C/C=C(\C)CC/C=C(\C)CC/C=C(\C)CC/C=C(\C)CC/C=C(\C)CC/C=C(\C)CC/C=C(\C)CC/C=C(\C)CC/C=C(\C)CCC=C(C)C)=C(C)C1=O [Co-enzyme Q-10] | 90.3 ± 16.3% | 10 | 116.1 ± 16.0% | 82.7 ± 16.2% | – | – | – |
| – | – | COc1cc(/C=C/C(=O)CC(=O)/C=C/c2ccc(O)c(OC)c2)ccc1O [Curcumin, reference compound] | 0.0 ± 2.8% | – | – | 0.0 ± 1.8% | – | – | – |
| – | – | Cl.N[C@@H](CS)C(=O)O [Cysteine hydrochloride] | – | – | – | 90.0 ± 12.5% | – | – | – |
| – | – | O=C([O-])CN(CCN(CC(=O)[O-])CC(=O)O)CC(=O)O.[Na+].[Na+] [EDTA (edetate disodium), edetate disodium] | 69.3 ± 20.5% | – | – | 110.4 ± 24.6% | – | – | – |
| – | – | C[N+](C)(C)[C@@H](Cc1c[nH]c(=S)[nH]1)C(=O)[O-] [Ergothioneine] | 58.2 ± 23.6% | 0.3 | 118.2 ± 30.6% | 112.5 ± 11.2% | – | – | – |
| significantly inhibited | – | C#Cc1cccc(Nc2ncnc3cc(OCCOC)c(OCCOC)cc23)c1 [Erlotinib, reference compound] | 63 ± 5% | – | – | 58.5 ± 3.9% | – | – | – |
| – | – | O=C1O[C@H]([C@H](O)CO)C(O)=C1O [Erythorbic acid] | 81.8 ± 31.4% | -1.88 | – | 88.2 ± 7.5% | – | – | – |
| – | – | COc1cc(/C=C/C(=O)O)ccc1O [Ferulic acid] | 100.4 ± 16.6% | – | 136.4 ± 20.7% | 91.0 ± 4.7% | – | – | – |
| – | – | N[C@@H](CCC(=O)N[C@@H](CS)C(=O)NCC(=O)O)C(=O)O [Glutathione] | 79.8 ± 15.8% | – | 107.9 ± 7.8% | 95.9 ± 2.2% | – | – | – |
| – | – | NCC(=O)O [Glycine] | – | – | 125.6 ± 23.0% | – | – | – | – |
| – | – | N[C@@H](Cc1c[nH]cn1)C(=O)O [Histidine] | 87.6 ± 10.6% | -3.32 | 108.9 ± 4.0% | 92.4 ± 1.6% | – | – | – |
| – | – | NCCCC[C@H](N)C(=O)O [Lysine] | 32.5 ± 44.3% | -3.05 | 120.3 ± 21.4% | 109.0 ± 20.8% | – | ≥ 50% | – |
| – | – | CSCC[C@H](N)C(=O)O [Methionine] | 86.7 ± 24.5% | -1.87 | 113.2 ± 15.2% | 94.8 ± 9.4% | – | – | – |
| – | – | O=P(O)(O)O [Phosphoric acid] | – | – | – | 83.0 ± 18.0% | – | – | – |
| – | – | C/C=C/C=C/C(=O)[O-].[K+] [Potassium sorbate] | 103.5 ± 28.7% | – | 98.8 ± 19.8% | 104.8 ± 14.5% | – | – | – |
| – | – | CCCOC(=O)c1cc(O)c(O)c(O)c1 [Propyl gallate] | 149.1 ± 67.6% | – | 79.3 ± 17.2% | 86.5 ± 2.6% | – | – | – |
| – | – | Oc1ccc2c(c1)OCO2 [Sesamol] | 121.3 ± 35.1% | 1.57 | 103.1 ± 7.2% | 90.3 ± 3.7% | – | – | – |
| – | – | O=S([O-])O.[Na+] [Sodium bisulfite] | 96.1 ± 30.4% | -1.2 | 90.1 ± 24.5% | 110.4 ± 9.3% | – | – | – |
| – | – | O=S(O)S(=O)(=O)O [Sodium metabisulfite] | 78.8 ± 17.5% | -3.7 | 118.9 ± 31.7% | 94.5 ± 8.2% | – | – | – |
| – | – | O=S([O-])[O-].[Na+].[Na+] [Sodium sulfite] | 77.7 ± 33.7% | -4 | 92.9 ± 4.5% | 99.7 ± 5.5% | – | – | – |
| – | – | O.O.O.O.O.O=S([O-])([O-])=S.[Na+].[Na+] [Sodium thiosulfate, pentahydrate] | 77.4 ± 20% | 0.048 | 104.4 ± 2.4% | 114.2 ± 22.8% | – | – | found not to inhibit these transporters |
| – | 101.1 ± 5.8% | O=C(O)C(O)C(O)C(=O)O (stereo not drawn) [Tartaric acid] | – | -0.76 | – | – | – | – | – |
| – | – | Vitamin E | 67.9 ± 24% | – | 83.5 ± 20.9% | 81.0 ± 12.6% | – | – | found not to inhibit these transporters |
